Values of other authors, collected in article PMC12843750, “Integrated Biomimetic 2D-LC and Permeapad® Assay for Profiling the Transdermal Diffusion of Pharmaceutical Compounds” (Molecules, 2026).

Conditions: ref Drugbank

## CC(=O)Nc1ccc(O)cc1 [Paracetamol]
  pKa: 9.46
